Experimental data published in patent US20030236257A1, “Polycyclic aryl and heteroaryl substituted 4-pyridones useful for selective inhibition of the cogulation cascade” (priority 2003, published 2003).

Tests used:
Assay type in all cases: biochemical
[1] = biological target: T1, trypsin, type IX from porcine pancreas (Sus scrofa, UniProt P00761); assay: Trypsin Assay; details: chromogenic substrate L-BAPNA, 60 min at room temperature, OD 405 nm; read-out: IC50 or % Inhibition Trpysin II (30 µM): IC50
T1 construct: purchased Sigma, St. Louis Mo; host or cells: porcine pancreas
T1 sequence (P00761 9-231): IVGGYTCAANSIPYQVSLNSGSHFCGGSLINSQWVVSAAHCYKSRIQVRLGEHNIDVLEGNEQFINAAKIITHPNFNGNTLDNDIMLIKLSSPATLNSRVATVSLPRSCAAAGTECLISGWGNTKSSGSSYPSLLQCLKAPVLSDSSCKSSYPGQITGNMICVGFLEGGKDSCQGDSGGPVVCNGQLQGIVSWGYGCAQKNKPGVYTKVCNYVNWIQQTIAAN
Method: 5 ug/ml trypsin, type IX from porcine pancreas and 0.375 mM N-α-Benzoyl-L-arginine-p-nitroanilide (LBAPNA) are added to a 96-well assay plate containing either inhibitor or buffer (50 mM Tris-HCl, pH 8.0, 100 mM NaCl, 0.1% BSA). The reactions, in a final volume of 100 ul are measured immediately at 405 nm to determine background absorbance. The plate is incubated at room temperature for 60 min, at which time the rate of hydrolysis of the substrate is measured by monitoring the reaction at 405 nm for the release of p-nitroaniline. Percent inhibition of trypsin activity is calculated from OD405nm value from the experimental and control sample.
(§1) Recombinant soluble TF, consisting of amino acids 1-219 of the mature protein sequence was expressed in E. coli and purified using a Mono Q Sepharose FPLC. Recombinant human […] was purchased from American Diagnostica, Greenwich Cr and chromogenic substrate N-Methylsulfonyl-D-phe-gly-arg-pnitroaniline was prepared by American Peptide Company, Inc., Sunnyvale, Calif. Factor Xa was obtained from Enzyme Research Laboratories, South Bend IN, thrombin from Calbiochem, La Jolla, Calif., and trypsin and L-BAPNA from Sigma, St. Louis Mo. The chromogenic substrates S-2765 and S-2238 were purchased from Chromogenix, Sweden.

[2] = biological target: T2, TF-VIIa (recombinant soluble tissue factor and recombinant human factor VIIa) (Homo sapiens, UniProt P08709); assay: TF-VIIa Assay; details: chromogenic substrate, 60 min at room temperature, OD 405 nm; read-out: IC50 or % Inhibition TF-VIIa (30 µM): IC50
T2 construct: purchased American Diagnostica, Greenwich; host or cells: soluble TF made in house in E. coli
T2 sequence (P08709 213-466 limits assumed): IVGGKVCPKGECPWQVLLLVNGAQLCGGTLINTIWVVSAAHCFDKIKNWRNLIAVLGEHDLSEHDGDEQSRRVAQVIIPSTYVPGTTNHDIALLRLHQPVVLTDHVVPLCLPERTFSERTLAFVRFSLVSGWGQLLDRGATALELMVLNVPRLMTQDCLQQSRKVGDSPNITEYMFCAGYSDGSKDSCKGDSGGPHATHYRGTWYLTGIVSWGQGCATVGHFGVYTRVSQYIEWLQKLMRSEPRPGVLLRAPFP
T2 sequence (P08709 61-212 partner limits assumed): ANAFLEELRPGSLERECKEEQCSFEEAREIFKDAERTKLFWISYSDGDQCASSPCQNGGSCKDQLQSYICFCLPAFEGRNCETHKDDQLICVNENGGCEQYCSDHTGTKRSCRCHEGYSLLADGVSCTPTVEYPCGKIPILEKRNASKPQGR
T2 sequence (P13726 33-251 partner limits assumed): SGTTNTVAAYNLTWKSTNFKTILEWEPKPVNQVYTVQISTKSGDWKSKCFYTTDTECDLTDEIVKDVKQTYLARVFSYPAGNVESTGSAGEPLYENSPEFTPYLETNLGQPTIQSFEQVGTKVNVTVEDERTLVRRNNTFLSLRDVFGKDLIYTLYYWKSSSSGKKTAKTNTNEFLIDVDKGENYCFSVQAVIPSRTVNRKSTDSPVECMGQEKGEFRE
Method: (§2) In this assay 100 nM recombinant soluble tissue factor and 2 nM recombinant human factor VIIa are added to a 96-well assay plate containing 0.4 mM of the substrate, N-Methylsulfonyl-D-phe-gly-arg-p-nitroaniline and either inhibitor or buffer (5 mM CaCl2, 50 mM Tris-HCl, pH 8.0, 100 mM NaCl, 0.1% BSA). The reaction, in a final volume of 100 ul is measured immediately at 405 nm to determine background absorbance. The plate is incubated at room temperature for 60 min, at which time the rate of hydrolysis of the substrate is measured by monitoring the reaction at 405 nm for the release of p-nitroaniline. Percent inhibition of TF-VIIa activity is calculated from OD405nm value from the experimental and control sample.
as §1

[3] = biological target: T3, human factor Xa (Homo sapiens, UniProt P00742); assay: Xa Assay; details: read-out: IC50 or % Inhibition Factor Xa (30 µM): % inhibition
T3 construct: purchased Enzyme Research Laboratories, South Bend IN
T3 sequence (P00742 235-488 limits assumed): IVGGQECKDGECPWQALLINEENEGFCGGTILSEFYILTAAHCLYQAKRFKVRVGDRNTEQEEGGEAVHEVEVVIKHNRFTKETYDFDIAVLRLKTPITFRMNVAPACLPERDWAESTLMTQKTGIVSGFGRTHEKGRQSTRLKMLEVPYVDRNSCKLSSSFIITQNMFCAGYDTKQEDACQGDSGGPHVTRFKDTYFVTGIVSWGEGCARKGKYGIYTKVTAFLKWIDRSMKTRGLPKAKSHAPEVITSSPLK
T3 sequence (P00742 41-179 partner limits assumed): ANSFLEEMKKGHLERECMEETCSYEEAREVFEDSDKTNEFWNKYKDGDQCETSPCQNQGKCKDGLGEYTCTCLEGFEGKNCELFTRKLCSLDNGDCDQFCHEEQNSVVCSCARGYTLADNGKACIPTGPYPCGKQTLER
Method: as §2, with “0.3” for “In this assay 100”, “nM” for “nM recombinant soluble tissue factor and 2 nM recombinant”, “Xa and 0.15 mM N-a-Benzyloxycarbonyl-D-arginyl-L-glycyl-L-arginne-nitroaniline-dihydrochloride (S-2765)” for “VIIa”, “containing” for “containing 0.4 mM of the substrate, N-Methylsulfonyl-D-phe-gly-arg-p-nitroaniline and”, “(50” for “(5 mM CaCl2, 50”, “Xa” for “TF-VIIa”
as §1

[4] = biological target: human thrombin (Homo sapiens, UniProt P00734); assay: Thrombin Assay
Method: 0.28 nM human thrombin and 0.06 mM H-D-Phenylalanyl-L-pipecolyl-L, arginine-nitroaniline, dihydrochloride are added to a 96-well assay plate containing either inhibitor or buffer (50 mM Tris-HCl, pH 8.0, 100 mM NaCl, 0.1% BSA). The reaction, in a final volume of 100 ul is measured immediately at 405 nm to determine background absorbance. The plate is incubated at room temperature for 60 min, at which time the rate of hydrolysis of the substrate is measured by monitoring the reaction at 405 nm for the release of pnitroaniline. Percent inhibition of thrombin activity is calculated from OD405nm value from the experimental and control sample.
as §1

Row | IC50 [1] | IC50 [2] | inhibition at 100 µM [3] | IC50 ([4]; chromogenic substrate, 60 min at room temperature, OD 405 nm, read-out: IC50 or % Inhibition Thrombin (30 µM): IC50) | inhibition at 100 µM ([4]; at 100 μM, read-out: IC50 or % Inhibition Thrombin (30 µM): % inhibition) | Compound
1 | 33 nM | 280 nM | 32% | 100000 nM | – | CC(C)Nc1cn(C)c(-c2cccc(N)c2)c(CC(=O)NCc2ccc(C(=N)N)cc2)c1=O [Example 1]
2 | 151 nM | 560 nM | 34% | – | 45% | CCCn1cc(NC(C)C)c(=O)c(CC(=O)NCc2ccc(C(=N)N)cc2)c1-c1cccc(N)c1 [Example 2]
